The subject of data set [1] is Staphylococcus aureus (ATCC 25923). Kind of data set: Intrinsic antimicrobial activity (MIC) against S. aureus. Type of data set: cell-based. The settings on record: ATCC25923, S. aureus ATCC 25923, mean (n = 3), read-out: MIC S. a. Here is the method: (§1) The susceptibility of bacterial strains Staphylococcus aureus (ATCC 25923), Escherichia coli (ATCC 25922) and Pseudomonas aeruginosa (ATCC 27853) to antibiotics and compounds was determined using previously reported protocols. Additional antimicrobial evaluation against MRSA (ATCC 43300), Klebsiella pneumoniae (ATCC 700603), Acinetobacter baumannii (ATCC 19606), Candida albicans (ATCC 90028) and Cryptococcus neoformans (ATCC 208821) was undertaken at the Community for Open Antimicrobial Drug Discovery at The University of Queensland (Australia) according to their standard protocols, as reported previously.

The subject of data set [2] is MRSA (ATCC 43300). The data set is described as follows: Intrinsic antimicrobial activity (MIC) against MRSA. In kind it is cell-based. The following applies: Staphylococcus aureus, MRSA ATCC 43300; mean (n = 2); read-out: MIC MRSA. Here is the method: as §1
Data set [3] relates to Pseudomonas aeruginosa (ATCC 27853). Kind of data set: Intrinsic antimicrobial activity (MIC) against P. aeruginosa. Type of data set: cell-based. The following applies: ATCC27853, P. aeruginosa ATCC 27853, mean (n = 3), read-out: MIC P. a. Here is the method: as §1
Data set [4] deals with Escherichia coli (ATCC 25922). The data set is described as follows: Intrinsic antimicrobial activity (MIC) against E. coli. Type of data set: cell-based. The settings on record: ATCC25922, E. coli ATCC 25922, mean (n = 3), read-out: MIC E. c. Here is the method:
as §1

Data set [5] concerns Klebsiella pneumoniae (ATCC 700603). Kind of data set: Intrinsic antimicrobial activity (MIC) against K. pneumoniae. The settings on record: ATCC700603, K. pneumoniae ATCC 700603, mean (n = 2), read-out: MIC K. p. Type of data set: cell-based. As for the experimental part:
as §1

Data set [6] concerns Acinetobacter baumannii (ATCC 19606). Kind of data set: Intrinsic antimicrobial activity (MIC) against A. baumannii. Type of data set: cell-based. The following applies: ATCC19606, A. baumannii ATCC 19606, mean (n = 2), read-out: MIC A. b. Here is the method:
as §1

Data set [7] concerns Candida albicans (ATCC 90028). Kind of data set: Intrinsic antifungal activity (MIC) against C. albicans. In kind it is cell-based. The following applies: ATCC90028, C. albicans ATCC 90028, mean (n = 2), read-out: MIC C. a. As for the experimental part: as §1
In data set [8] the test system is Cryptococcus neoformans (ATCC 208821). The data set is described as follows: Intrinsic antifungal activity (MIC) against C. neoformans. The settings on record: ATCC208821, C. neoformans ATCC 208821, mean (n = 2), read-out: MIC C. n. Type of data set: cell-based. Here is the method:
as §1

Data set [9] in a line: Cytotoxicity assay. In kind it is cell-based. The following applies: human; HEK293 cells; mean (n = 2); read-out: Cytotoxicity: concentration of compound at 50% cytotoxicity (IC50). Here is the method:
Cytotoxicity assays were conducted using the protocols previously reported.

The test system of data set [10] is P. aeruginosa ATCC 27853. The data set is described as follows: Enhancement of doxycycline action against P. aeruginosa. In kind it is cell-based, Pseudomonas aeruginosa. The following applies: doxycycline at 4.5 µM. As for the experimental part: (§2) Antibiotic enhancer concentrations were determined using previously reported protocols.
For data set [11], the system named is E. coli ATCC 25922. The data set is described as follows: Enhancement of erythromycin action against E. coli. In kind it is cell-based, Escherichia coli. The following applies: erythromycin at 10.9 µM. As for the experimental part: as §2
The test system of data set [12] is human red blood cells. Kind of data set: Hemolytic assay. The settings on record: mean (n = 2). In kind it is cell-based. As for the experimental part: Hemolysis assays were conducted using the protocols previously reported.

Molecules are shown by their SMILES. Some results are limits rather than exact numbers.

A word on the MIC: it is the lowest concentration found to suppress growth. Consider `Cc1cccc2c(CC(=O)NCCCNCCCCCCCNCCCNC(=O)Cc3c[nH]c4c(C)cccc34)c[nH]c12.O=C(O)C(F)(F)F.O=C(O)C(F)(F)F` [Compound 20c, N^1,N^7-Bis(3-(2-(7-methyl-1H-indol-3-yl)acetamido)propyl)heptane-1,7-diaminium 2,2,2-trifluoroacetate], for which the MIC was 3.83 µM in data set [1]; less than 0.2 µM in [2]; more than 245 µM in [3]; 245 µM in data set [4]; more than 39 µM in data set [5]; more than 39 µM in data set [6]. The minimal inhibitory concentration (MIC) in data set [7] was more than 39 µM; in data set [8], less than 0.2 µM. The IC50 in [9] was more than 39 µM. For the same molecule, the “Dox/P. a fold change (ratio between intrinsic MIC of the test compound and combination MIC)” value in [10] was more than 2 fold. Also, in [10], the “Dox/P. a: concentration required to restore doxycycline activity (combination MIC)” value (“Dox/P. a: concentration required” below) was determined as 123 µM. The “Eryth/E. c: concentration required to restore erythromycin activity (combination MIC)” value (from here on “Eryth/E. c: concentration required”) in [11] worked out at 123 µM.
In the case of `Cc1cccc2c(CC(=O)NCCCNCCCCCCCCCCNCCCNC(=O)Cc3c[nH]c4c(C)cccc34)c[nH]c12.O=C(O)C(F)(F)F.O=C(O)C(F)(F)F` [Compound 20e, N^1,N^10-Bis(3-(2-(7-methyl-1H-indol-3-yl)acetamido)propyl)decane-1,10-diaminium 2,2,2-trifluoroacetate], the MIC is 233 µM in data set [1]; not above 0.29 µM in data set [2]; more than 233 µM in data set [3]; more than 233 µM in [4]; 18.7 µM in [7]; not above 0.29 µM in data set [8]. The IC50 in [9] was more than 37 µM. Further, the “Hemolysis: concentration of compound at 10% hemolytic activity (HC10)” value (“Hemolysis … at 10% hemolytic activity (HC10)” for short) in [12] was 12.7 µM. The “Dox/P. a fold change (ratio between intrinsic MIC of the test compound and combination MIC)” value in [10] is reported as 1 fold. The “Dox/P. a: concentration required” value in data set [10] was more than 233 µM. Moreover, the “Eryth/E. c: concentration required” value in [11] is more than 233 µM.
As for `COc1cccc2c(CC(=O)NCCCNCCCCCCCCCCCCNCCCNC(=O)Cc3c[nH]c4c(OC)cccc34)c[nH]c12.O=C(O)C(F)(F)F.O=C(O)C(F)(F)F` [Compound 19f, N^1,N^12-Bis(3-(2-(7-methoxy-1H-indol-3-yl)acetamido)propyl)dodecane-1,12-diaminium 2,2,2-trifluoroacetate], the MIC in data set [1] was 13.6 µM; in data set [2], not above 0.27 µM; in data set [3], more than 218 µM; in [4], 109 µM; in data set [7], 34.9 µM; in [8] it was not above 0.27 µM. Moreover, the IC50 in [9] was more than 35 µM. For the same molecule, the “Hemolysis … at 10% hemolytic activity (HC10)” value in [12] worked out at 10.7 µM. Moreover, the “Dox/P. a fold change (ratio between intrinsic MIC of the test compound and combination MIC)” value in data set [10] is given as more than 1 fold. Besides, the “Dox/P. a: concentration required” value in [10] came to 218 µM. For the same molecule, the “Eryth/E. c: concentration required” value in data set [11] is recorded as 109 µM.
Take `O=C(Cc1c[nH]c2c(F)cccc12)NCCCNCCCCCCCCNCCCNC(=O)Cc1c[nH]c2c(F)cccc12.O=C(O)C(F)(F)F.O=C(O)C(F)(F)F` [Compound 18d, N^1,N^8-Bis(3-(2-(7-fluoro-1H-indol-3-yl)acetamido)propyl)octane-1,8-diaminium 2,2,2-trifluoroacetate]: the minimal inhibitory concentration (MIC) in data set [1] is 29.9 µM; in [2], less than 0.2 µM; in [3] it was more than 239 µM; in data set [4], more than 239 µM; in [7] it was more than 38 µM; in data set [8], less than 0.2 µM. Besides, the IC50 in data set [9] was more than 38 µM. Moreover, the “Hemolysis … at 10% hemolytic activity (HC10)” value in data set [12] was more than 38 µM. In addition, the “Dox/P. a fold change (ratio between intrinsic MIC of the test compound and combination MIC)” value in [10] was 1 fold. Also, in [10], the “Dox/P. a: concentration required” value is more than 239 µM. In addition, the “Eryth/E. c: concentration required” value in data set [11] is given as more than 239 µM.
As to `COc1cccc2c(CC(=O)NCCCNCCCCNCCCNC(=O)Cc3c[nH]c4c(OC)cccc34)c[nH]c12.O=C(O)C(F)(F)F.O=C(O)C(F)(F)F` [Compound 19a, N^1,N^4-Bis(3-(2-(7-methoxy-1H-indol-3-yl)acetamido)propyl)butane-1,4-diaminium 2,2,2-trifluoroacetate], the minimum inhibitory concentration (MIC) in data set [1] is 124 µM; in data set [2], 19.9 µM; in data set [3], more than 249 µM; in data set [4] it was more than 249 µM; in [7], more than 40 µM; in [8], 19.9 µM. Moreover, the IC50 in data set [9] was more than 40 µM. Further, the “Hemolysis … at 10% hemolytic activity (HC10)” value in [12] is listed as more than 40 µM. In addition, the “Dox/P. a fold change (ratio between intrinsic MIC of the test compound and combination MIC)” value in [10] is on record as 1 fold. In data set [10], the “Dox/P. a: concentration required” value is given as more than 249 µM. For the same molecule, the “Eryth/E. c: concentration required” value in [11] is more than 249 µM.
For `O=C(Cc1c[nH]c2ccccc12)NCCCNCCCCCCNCCCNC(=O)Cc1c[nH]c2ccccc12.O=C(O)C(F)(F)F.O=C(O)C(F)(F)F` [Compound 14b, N^1,N^6-Bis(3-(2-(1H-indol-3-yl)acetamido)propyl)hexane-1,6-diaminium 2,2,2-trifluoroacetate], the MIC in data set [1] is 129 µM; in data set [2], less than 0.2 µM; in [3], more than 259 µM; in [4] it was more than 129 µM; in [7], more than 41 µM; in data set [8], less than 0.2 µM. Moreover, in [9], the IC50 was more than 41 µM. The “Hemolysis … at 10% hemolytic activity (HC10)” value in data set [12] is on record as more than 41 µM. Moreover, the “Dox/P. a fold change (ratio between intrinsic MIC of the test compound and combination MIC)” value in data set [10] is recorded as more than 2 fold. The “Dox/P. a: concentration required” value in data set [10] stood at 129 µM. In addition, in [11], the “Eryth/E. c: concentration required” value was more than 259 µM.
Turning to `O=C(Cc1c[nH]c2c(F)cccc12)NCCCNCCCCCCCCCCNCCCNC(=O)Cc1c[nH]c2c(F)cccc12.O=C(O)C(F)(F)F.O=C(O)C(F)(F)F` [Compound 18e, N^1,N^10-Bis(3-(2-(7-fluoro-1H-indol-3-yl)acetamido)propyl)decane-1,10-diaminium 2,2,2-trifluoroacetate], the MIC in data set [1] is 7.23 µM; in data set [2], not above 0.29 µM; in [3] it was more than 231 µM; in data set [4], 116 µM; in data set [7] it was 2.31 µM; in data set [8] it was not above 0.29 µM. The IC50 in data set [9] is more than 37 µM. Also, the “Hemolysis … at 10% hemolytic activity (HC10)” value in data set [12] amounted to 1.49 µM. For the same molecule, in data set [10], the “Dox/P. a fold change (ratio between intrinsic MIC of the test compound and combination MIC)” value was determined as 1 fold. Further, the “Dox/P. a: concentration required” value in [10] is listed as 231 µM. Moreover, the “Eryth/E. c: concentration required” value in data set [11] was 57.8 µM.
For `COc1cccc2c(CC(=O)NCCCNCCCCCCCCNCCCNC(=O)Cc3c[nH]c4c(OC)cccc34)c[nH]c12.O=C(O)C(F)(F)F.O=C(O)C(F)(F)F` [Compound 19d, N^1,N^8-Bis(3-(2-(7-methoxy-1H-indol-3-yl)acetamido)propyl)octane-1,8-diaminium 2,2,2-trifluoroacetate], the MIC in data set [1] is 116 µM; in [2] it was 37.2 µM; in data set [3], more than 232 µM; in data set [4], more than 232 µM; in data set [7], more than 37 µM; in data set [8], not above 0.29 µM. For the same molecule, the IC50 in data set [9] was more than 37 µM. Moreover, the “Hemolysis … at 10% hemolytic activity (HC10)” value in [12] is recorded as more than 37 µM. For the same molecule, the “Dox/P. a fold change (ratio between intrinsic MIC of the test compound and combination MIC)” value in [10] is on record as 1 fold. Besides, in data set [10], the “Dox/P. a: concentration required” value was more than 232 µM. Moreover, the “Eryth/E. c: concentration required” value in data set [11] is recorded as more than 232 µM.
As for `Cc1cccc2c(CC(=O)NCCCNCCCCCCNCCCNC(=O)Cc3c[nH]c4c(C)cccc34)c[nH]c12.O=C(O)C(F)(F)F.O=C(O)C(F)(F)F` [Compound 20b, N^1,N^6-Bis(3-(2-(7-methyl-1H-indol-3-yl)acetamido)propyl)hexane-1,6-diaminium 2,2,2-trifluoroacetate], the MIC in [1] was 62.4 µM; in data set [2], not above 0.31 µM; in data set [3] it was more than 250 µM; in data set [4], 250 µM; in data set [7], 40 µM; in data set [8], not above 0.31 µM. For the same molecule, the IC50 in data set [9] is more than 40 µM. Also, the “Hemolysis … at 10% hemolytic activity (HC10)” value in data set [12] was 9.24 µM. Besides, in [10], the “Dox/P. a fold change (ratio between intrinsic MIC of the test compound and combination MIC)” value is given as more than 1 fold. The “Dox/P. a: concentration required” value in data set [10] was found to be 250 µM. For the same molecule, the “Eryth/E. c: concentration required” value in [11] was found to be 62.4 µM.

For the origin of these results see PMC10452110, “Indole-3-Acetamido-Polyamines as Antimicrobial Agents and Antibiotic Adjuvants” (Biomolecules, 2023).
